Source: publication PMC7604895, “Identification of a Novel Substrate-Derived Spermine Oxidase Inhibitor” (Acta Naturae, 2020)
Values belong to the compound of their own block, whether it stands above or below them.

Key:
Assay type in all cases: biochemical
[1] = molecular target: T1, spermine oxidase (SMOX) (Homo sapiens, UniProt Q9NWM0); test: luminol-HRP chemiluminescent H2O2 assay with purified SMOX, […] Spm substrate, […] min preincubation
T1 construct: human SMOX expressed from pET15b in E. coli BL21(DE3), polyhistidine tag removed by thrombin

[2] = molecular target: T1, spermine oxidase (SMOX); test: luminol-HRP chemiluminescent H2O2 assay with purified SMOX, […] Spm substrate (positive control inhibitor)
[3] = molecular target: T1, spermine oxidase (SMOX); test: substrate turnover by purified SMOX, luminol-HRP chemiluminescent H2O2 detection

T1 sequence (Q9NWM0 whole entry): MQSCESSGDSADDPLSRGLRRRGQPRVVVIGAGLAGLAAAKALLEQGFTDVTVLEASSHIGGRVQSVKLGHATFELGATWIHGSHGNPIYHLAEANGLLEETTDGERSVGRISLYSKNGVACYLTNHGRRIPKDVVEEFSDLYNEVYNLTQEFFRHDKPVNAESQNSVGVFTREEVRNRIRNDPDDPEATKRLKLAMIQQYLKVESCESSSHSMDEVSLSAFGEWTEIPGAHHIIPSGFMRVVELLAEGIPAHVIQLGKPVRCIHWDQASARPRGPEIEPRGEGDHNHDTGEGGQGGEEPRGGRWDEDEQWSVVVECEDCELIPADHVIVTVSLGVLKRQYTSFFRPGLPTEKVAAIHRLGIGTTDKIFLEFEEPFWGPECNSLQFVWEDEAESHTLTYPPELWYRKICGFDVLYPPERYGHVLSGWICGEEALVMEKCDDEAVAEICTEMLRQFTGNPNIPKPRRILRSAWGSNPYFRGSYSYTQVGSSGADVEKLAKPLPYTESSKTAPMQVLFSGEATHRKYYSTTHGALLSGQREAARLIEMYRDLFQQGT

- IC50 [1]: 169 µM
SMILES: C=C(CN)CNCCCCNCC(=C)CN [2,11-Met2-Spm, 1,12-diamino-2,11-bis(methylidene)-4,9-diazadodecane]

- IC50 [2]: 100 µM
SMILES: C=C=CCNCCCCNCC=C=C [MDL72527, N1,N4-(bis(2,3-butadienyl)-1,4-butanediamine)]

SMILES: NCCCNCCCCNCCCN [Spm, spermine]
- substrate turnover by purified SMOX, luminol-HRP chemiluminescent H2O2 detection [3]: SMOX activity was measured using a chemiluminescent enzyme-based assay detecting the formation of H2O2 in the presence of Spm
